According to the NIST ThermoML archive (doi:10.1021/je300775u):

Test: xn = mol fraction of the nth substance listed
Details: 101 kPa, Liquid; for speed of sound: Pulse-echo method; for mass density: Vibrating tube method

ClCBr [bromochloromethane] + ClC(Cl)(Cl)Br
Details | mass density, 293.15 K [kg/m3] | mass density, 298.15 K [kg/m3] | mass density, 303.15 K [kg/m3] | mass density, 308.15 K [kg/m3] | mass density, 313.15 K [kg/m3] | speed of sound, 293.15 K [m/s] | speed of sound, 298.15 K [m/s] | speed of sound, 303.15 K [m/s] | speed of sound, 308.15 K [m/s] | speed of sound, 313.15 K [m/s]
x2 = 0 | 1933.23 | 1921.71 | 1910.15 | 1898.51 | 1886.82 | 1001.2 | 986.1 | 971 | 955.9 | 940.8
x2 = 0.052 | 1938.2 | 1926.72 | 1915.19 | 1903.6 | 1891.94 | 992.8 | 977.9 | 962.9 | 947.9 | 933
x2 = 0.103 | 1942.79 | 1931.34 | 1919.85 | 1908.3 | 1896.67 | 985.2 | 970.4 | 955.5 | 940.7 | 925.9
x2 = 0.1538 | 1947.34 | 1935.88 | 1924.46 | 1912.93 | 1901.44 | 978.4 | 963.6 | 948.9 | 934.2 | 919.1
x2 = 0.2031 | 1951.55 | 1940.16 | 1928.76 | 1917.27 | 1905.74 | 972.2 | 957.5 | 942.8 | 928.1 | 913.6
x2 = 0.2551 | 1956.05 | 1944.71 | 1933.31 | 1921.86 | 1910.36 | 966.1 | 951.6 | 937 | 922.6 | 908.1
x2 = 0.305 | 1960.19 | 1948.82 | 1937.49 | 1926.18 | 1914.72 | 960.7 | 946.3 | 931.8 | 917.3 | 903
x2 = 0.3522 | 1963.98 | 1952.66 | 1941.28 | 1929.99 | 1918.58 | 956.4 | 942.1 | 927.8 | 913.5 | 898.9
x2 = 0.4063 | 1968.54 | 1957.3 | 1946.02 | 1934.68 | 1923.3 | 950.8 | 936.7 | 922.4 | 908.2 | 894
x2 = 0.4553 | 1972.41 | 1961.2 | 1949.96 | 1938.65 | 1927.29 | 946.7 | 932.6 | 918.4 | 904.2 | 890.3
x2 = 0.5058 | 1976.4 | 1965.21 | 1954 | 1942.75 | 1931.42 | 942.7 | 928.6 | 914.5 | 900.5 | 886.5
x2 = 0.5665 | 1981.04 | 1969.89 | 1958.74 | 1947.52 | 1936.26 | 938.2 | 924.2 | 910.3 | 896.4 | 882.6
x2 = 0.6027 | 1983.79 | 1972.67 | 1961.52 | 1950.31 | 1939.1 | 935.8 | 921.9 | 908 | 894.1 | 880.3
x2 = 0.6567 | 1987.81 | 1976.74 | 1965.63 | 1954.45 | 1943.26 | 932.3 | 918.5 | 904.7 | 891 | 877.2
x2 = 0.7046 | 1991.31 | 1980.21 | 1969.15 | 1958.12 | 1946.95 | 929.6 | 915.8 | 902 | 888.3 | 874.7
x2 = 0.7543 | 1994.91 | 1983.88 | 1972.83 | 1961.75 | 1950.61 | 926.9 | 913.2 | 899.5 | 885.9 | 872.3
x2 = 0.8025 | 1998.2 | 1987.2 | 1976.2 | 1965.14 | 1954.05 | 924.5 | 910.8 | 897.2 | 883.7 | 870.2
x2 = 0.8516 | 2001.94 | 1990.96 | 1979.93 | 1968.92 | 1957.85 | 922.3 | 908.7 | 895.1 | 881.6 | 868.3
x2 = 0.8996 | 2005.35 | 1994.38 | 1983.39 | 1972.42 | 1961.38 | 920.3 | 906.8 | 893.3 | 879.9 | 866.5
x2 = 0.9228 | 2007.14 | 1996.17 | 1985.15 | 1974.22 | 1963.19 | 919.8 | 906.3 | 892.9 | 879.4 | 865.9
